Measurements from the NIST ThermoML archive (doi:10.1021/acs.jced.7b00002).

Experiment: xn = mol fraction of the nth substance listed
Settings: 97.6 kPa, Liquid; for viscosity: Capillary tube (Ostwald / Ubbelohde) method; for mass density: Vibrating tube method

CCCCCCCC[n+]1ccn(C)c1.[Cl-] [1-methyl-3-octylimidazolium chloride] + CN(C)C=O
Settings	mass density [kg/m3]	viscosity [mPa·s]
303.15 K, x1 = 0.119	965.57	2.56
303.15 K, x1 = 0.241	979.1	8.9
303.15 K, x1 = 0.321	985.99	18.99
303.15 K, x1 = 0.424	992	49.08
303.15 K, x1 = 0.557	996.35	160.48
303.15 K, x1 = 0.739	1002.01	766.79
303.15 K, x1 = 0.858	1004.31	1892.8
303.15 K, x1 = 1	1006.2	7339.7
308.15 K, x1 = 0.119	961.27	2.32
308.15 K, x1 = 0.241	975.4	7.69
308.15 K, x1 = 0.321	982.47	15.91
308.15 K, x1 = 0.424	988.63	39.48
308.15 K, x1 = 0.557	993.19	122.67
308.15 K, x1 = 0.739	998.95	536.62
308.15 K, x1 = 0.858	1001.36	1258
308.15 K, x1 = 1	1003.33	4272.9
313.15 K, x1 = 0.119	957.31	2.13
313.15 K, x1 = 0.241	971.7	6.75
313.15 K, x1 = 0.321	979.05	13.51
313.15 K, x1 = 0.424	985.26	32.2
313.15 K, x1 = 0.557	989.93	95.06
313.15 K, x1 = 0.739	995.95	381.17
313.15 K, x1 = 0.858	998.42	856.69
313.15 K, x1 = 1	1000.48	2766.9
318.15 K, x1 = 0.119	953.45	1.95
318.15 K, x1 = 0.241	967.99	5.96
318.15 K, x1 = 0.321	975.72	11.56
318.15 K, x1 = 0.424	981.9	26.5
318.15 K, x1 = 0.557	986.82	74.18
318.15 K, x1 = 0.739	992.97	277.21
318.15 K, x1 = 0.858	995.47	596.05
318.15 K, x1 = 1	997.64	1788.6
323.15 K, x1 = 0.119	949.36	1.81
323.15 K, x1 = 0.241	964.31	5.29
323.15 K, x1 = 0.321	972.37	10
323.15 K, x1 = 0.424	978.56	22.11
323.15 K, x1 = 0.557	983.92	59.06
323.15 K, x1 = 0.739	990	206.44
323.15 K, x1 = 0.858	992.57	426.48
323.15 K, x1 = 1	994.82	1198.7
328.15 K, x1 = 0.119	945.25	1.67
328.15 K, x1 = 0.241	960.61	4.75
328.15 K, x1 = 0.321	969.03	8.72
328.15 K, x1 = 0.424	975.22	18.67
328.15 K, x1 = 0.557	980.8	47.65
328.15 K, x1 = 0.739	987.03	156.59
328.15 K, x1 = 0.858	989.7	312.38
328.15 K, x1 = 1	992	828.3
333.15 K, x1 = 0.119	941.11	1.56
333.15 K, x1 = 0.241	956.95	4.25
333.15 K, x1 = 0.321	965.62	7.67
333.15 K, x1 = 0.424	971.88	15.92
333.15 K, x1 = 0.557	977.65	38.97
333.15 K, x1 = 0.739	984.05	120.9
333.15 K, x1 = 0.858	986.83	233.56
333.15 K, x1 = 1	989.17	588.69
338.15 K, x1 = 0.119	936.97	1.45
338.15 K, x1 = 0.241	953.32	3.85
338.15 K, x1 = 0.321	962.16	6.79
338.15 K, x1 = 0.424	968.56	13.71
338.15 K, x1 = 0.557	974.48	32.38
338.15 K, x1 = 0.739	981.09	94.93
338.15 K, x1 = 0.858	983.97	176.82
338.15 K, x1 = 1	986.38	426.28
343.15 K, x1 = 0.119	932.83	1.36
343.15 K, x1 = 0.241	949.69	3.5
343.15 K, x1 = 0.321	958.67	6.06
343.15 K, x1 = 0.424	965.24	11.91
343.15 K, x1 = 0.557	971.56	27.13
343.15 K, x1 = 0.739	978.13	75.65
343.15 K, x1 = 0.858	981.1	137.16
343.15 K, x1 = 1	983.63	316.66
348.15 K, x1 = 0.119	928.69	1.27
348.15 K, x1 = 0.241	946.02	3.2
348.15 K, x1 = 0.321	955.18	5.43
348.15 K, x1 = 0.424	961.92	10.41
348.15 K, x1 = 0.557	968.34	22.93
348.15 K, x1 = 0.739	975.19	61.29
348.15 K, x1 = 0.858	978.24	108.17
348.15 K, x1 = 1	980.88	237.14
353.15 K, x1 = 0.119	924.55	1.2
353.15 K, x1 = 0.241	942.33	2.93
353.15 K, x1 = 0.321	951.69	4.9
353.15 K, x1 = 0.424	958.62	9.16
353.15 K, x1 = 0.557	965.07	19.6
353.15 K, x1 = 0.739	972.25	50.08
353.15 K, x1 = 0.858	975.39	86.03
353.15 K, x1 = 1	978.13	181.41
